Measured values published in patent US20190119284A1, “ErbB Inhibitors and Uses Thereof” (The Regents of the University of California, priority 2016, published 2019).

Experiments:
Assay type in all cases: cell-based
[1] = system: Ba/F3 cell line panel (HER2YF/HER3); assay: 48 h proliferation of the Ba/F3 cell line panel (CellTiter-Glo); conditions: 48 h proliferation curves
Method: FIGS. 3A-3D. Design and execution of a high-throughput screen identifies a novel HER2/HER3 inhibitor. FIG. 3A: 2YF/3wt cells were incubated in the presence or absence of NRG for 48 h and proliferation was assessed by CellTiter-Glo (mean±SD, n=1). […] FIG. 3C: Structure and proliferation curves for hit compound 1 (also referred herein as compound 185) against the Ba/F3 cell line panel (mean±SD, n=3), FIG. 3D: Structure and proliferation curves for compound 2 (also referred to herein as compound 55A) against the panel of Ba/F3 cell lines (mean±SD, n=3).
FIGS. 4A-4F. Compound 2 is a selective Type I inhibitor for HER2. […] FIG. 4B: Thermal stabilization of the HER3 kinase domain by either compound 2 or ATP as determined by Thermofluor (mean±SD, n=3). FIGS. 4C-4D: The crystal structure of either erlotinib (FIG. 4C) or 2 (FIG. 4D) bound to EGFR V924R. The kinase domain in complex with compound 2 has been stabilized in the active confirmation by drug binding, despite the mutation—as evidenced by the ordered extension of the activation loop and the inward positioning of the α-C helix.
FIGS. 5A-5D. […] FIG. 5A: Chemical structure of compound 3 (also referred to herein as compound 178). FIG. 5B: Proliferation curves for compound 3 against the Ba/F3 cell line panel (mean±SD, n=3). […] FIG. 5D: The same assay in FIG. 2A was performed with compound 3 in SK-BR-3 cells.
FIG. 10. […]

[2] = molecular target: 2YF/3wt + NRG Ba/F3 cells (HER2YF/HER3wt) (Homo sapiens, UniProt P04626, Y1005F/Y1023F/Y1112F/Y1127F/Y1139F/Y1196F/Y1221F/Y1222F/Y1248F, cells depend on it); assay: Ba/F3 proliferation assay, 2YF/3wt + NRG; conditions: Tables 7 and 8; read-out: Ba/F3 line IC50, HER2YF/HER3 + NRG
Sequence of 2YF/3wt + NRG Ba/F3 cells (HER2YF/HER3wt) (P04626 whole entry Y1005F/Y1023F/Y1112F/Y1127F/Y1139F/Y1196F/Y1221F/Y1222F/Y1248F): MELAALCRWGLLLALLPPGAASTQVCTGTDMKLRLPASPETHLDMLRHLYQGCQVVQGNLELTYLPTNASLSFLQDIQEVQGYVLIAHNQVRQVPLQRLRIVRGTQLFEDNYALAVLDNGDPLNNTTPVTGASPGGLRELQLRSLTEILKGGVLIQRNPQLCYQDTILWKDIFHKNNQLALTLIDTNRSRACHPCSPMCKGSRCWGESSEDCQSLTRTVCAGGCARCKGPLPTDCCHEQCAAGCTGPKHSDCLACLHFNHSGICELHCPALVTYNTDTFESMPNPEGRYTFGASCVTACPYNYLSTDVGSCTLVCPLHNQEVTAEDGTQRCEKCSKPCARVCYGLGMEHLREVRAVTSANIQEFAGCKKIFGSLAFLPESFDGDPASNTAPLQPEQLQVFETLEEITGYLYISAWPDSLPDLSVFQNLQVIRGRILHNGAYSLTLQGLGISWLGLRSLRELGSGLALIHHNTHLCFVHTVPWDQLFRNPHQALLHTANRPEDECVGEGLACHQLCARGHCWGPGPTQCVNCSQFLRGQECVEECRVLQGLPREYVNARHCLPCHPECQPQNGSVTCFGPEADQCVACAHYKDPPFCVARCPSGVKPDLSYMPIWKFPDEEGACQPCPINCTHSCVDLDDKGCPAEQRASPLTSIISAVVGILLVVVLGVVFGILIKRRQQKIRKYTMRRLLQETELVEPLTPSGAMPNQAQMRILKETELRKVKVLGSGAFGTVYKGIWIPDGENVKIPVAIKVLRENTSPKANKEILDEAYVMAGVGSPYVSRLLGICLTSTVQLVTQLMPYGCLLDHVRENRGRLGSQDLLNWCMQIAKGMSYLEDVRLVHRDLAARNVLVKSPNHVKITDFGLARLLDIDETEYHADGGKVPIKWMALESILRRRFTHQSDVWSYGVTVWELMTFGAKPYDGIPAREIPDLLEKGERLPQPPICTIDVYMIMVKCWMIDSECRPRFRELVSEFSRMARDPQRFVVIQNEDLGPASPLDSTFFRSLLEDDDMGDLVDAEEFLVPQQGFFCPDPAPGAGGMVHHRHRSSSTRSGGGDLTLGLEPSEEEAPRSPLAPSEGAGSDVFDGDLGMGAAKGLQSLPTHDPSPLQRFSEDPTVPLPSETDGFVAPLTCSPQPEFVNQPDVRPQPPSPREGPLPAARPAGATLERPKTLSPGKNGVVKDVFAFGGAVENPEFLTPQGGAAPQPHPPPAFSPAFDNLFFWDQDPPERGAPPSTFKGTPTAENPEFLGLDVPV
Excerpt: Ba/F3 cells are normally dependent on IL-3 signaling for their proliferation and survival, but can be made dependent on introduced oncogenic signals. We sequentially selected transduced Ba/F3 cells for populations stably expressing HER3 and then HER2. To ensure that all of the proliferative signal could be attributed to HER2/HER3 heterodimers, rather than HER2 homodimers, the 9 C-terminal tyrosines in HER2 were mutated to phenylalanine (HER2YF). We then withdrew IL-3 and supplemented the media with NRG to select for NRG dependent HER2YF/HER3wt cells (2YF/3wt).
For the 2YF/3wt cells, the parental cells were first transduced with HER3 according to the protocol above and were then spun down at 500×g for 5 min and re-suspended in media supplemented with 10 ng/mL IL-3 and 3 μg/mL puromycin (Invitrogen). Cells were maintained in these conditions for seven days, passaging as required. After seven days the cells were spun down, washed with fresh media, and then used for a subsequent round of transduction according to the protocol above with HER2YF virus. […] The cells were maintained in these conditions for seven days, passaging as required. After seven days the cells were spun down, washed with fresh media, and then suspended in media supplemented with 10 ng/mL of NRG. Cells were maintained in these conditions for seven days to select for a NRG dependent population of 2YF/3wt Ba/F3 cells that were then maintained as described above. The same protocol was used for the 2YF-L755S/3wt, 2YF-YVMA/3wt, and 2YF-VC/3wt cell lines using the indicated constructs.
Proliferation Assays. […] The following day media was changed to fresh media that contained either DMSO or the indicated concentration of drug plus NRG (50 ng/mL final concentration) as indicated. […] For all normalized assays, proliferation was normalized to the DMSO control condition. All graphs were plotted in GraphPad Prism 6 and fit with a non-linear regression of the log(inhibitor) vs response with a variable slope where shown. All graphs are averages (+/−standard deviation) of biological triplicates each performed in technical triplicate unless otherwise noted. If only one biological replicate was performed standard deviations were derived from the technical replicates.

Axl+ Ba/F3 cells = molecular target: T1, Axl+ Ba/F3 cells (Homo sapiens, UniProt P30530); assay: Ba/F3 proliferation assay, Axl+; conditions: Tables 7 and 8; read-out: Ba/F3 line IC50, Axl+
T1 sequence (P30530 1-894): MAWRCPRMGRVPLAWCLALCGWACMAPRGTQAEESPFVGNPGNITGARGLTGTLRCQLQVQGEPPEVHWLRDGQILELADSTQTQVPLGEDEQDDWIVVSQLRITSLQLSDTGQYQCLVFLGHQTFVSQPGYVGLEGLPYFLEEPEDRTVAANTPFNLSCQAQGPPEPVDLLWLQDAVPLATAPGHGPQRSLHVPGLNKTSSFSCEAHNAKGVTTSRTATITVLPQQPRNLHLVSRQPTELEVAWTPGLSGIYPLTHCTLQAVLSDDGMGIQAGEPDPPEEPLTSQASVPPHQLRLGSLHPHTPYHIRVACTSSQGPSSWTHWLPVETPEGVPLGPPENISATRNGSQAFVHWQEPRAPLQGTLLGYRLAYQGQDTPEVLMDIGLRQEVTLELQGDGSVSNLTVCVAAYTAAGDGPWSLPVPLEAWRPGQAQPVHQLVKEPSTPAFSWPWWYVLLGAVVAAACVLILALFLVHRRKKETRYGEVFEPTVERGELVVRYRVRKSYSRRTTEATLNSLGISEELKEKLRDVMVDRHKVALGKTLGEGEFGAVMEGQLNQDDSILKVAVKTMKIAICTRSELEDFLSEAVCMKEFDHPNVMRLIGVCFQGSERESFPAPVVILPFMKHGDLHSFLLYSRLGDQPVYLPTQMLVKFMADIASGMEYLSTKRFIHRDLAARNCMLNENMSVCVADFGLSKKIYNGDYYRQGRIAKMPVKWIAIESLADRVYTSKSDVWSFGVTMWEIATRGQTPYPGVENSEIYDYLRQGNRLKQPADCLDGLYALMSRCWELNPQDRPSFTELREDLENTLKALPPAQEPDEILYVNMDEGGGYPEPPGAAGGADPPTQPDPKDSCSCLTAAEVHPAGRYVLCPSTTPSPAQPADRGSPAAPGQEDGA
Method: (§1) To validate the screen and test the effectiveness of counter-screening with either the same 2YF/3wt Ba/F3 cell line or the parental Ba/F3's in the presence of IL-3 to remove cytotoxic primary hits, we first tested a panel of kinase inhibitors with established mechanisms of action.
For Axl+ cells, the transduced cells were spun down at 500×g for 5 min and resuspended in media supplemented with 10 ng/mL IL-3 and 3 μg/mL puromycin (Invitrogen). Cells were maintained in these conditions for 7 days, passaging as required. After 7 days the cells were spun down, washed with fresh media, and then suspended in IL-3 free media. The cells were maintained in these conditions for 2 weeks to select for an IL-3 independent population of Axl+ driven cells.
(§2) Proliferation Assays. For adherent cell lines, cells were plated onto opaque white 96 well plates (Greiner cat #655083) and allowed to adhere overnight. The following day media was changed to fresh media that contained either DMSO or the indicated concentration of drug plus NRG (50 ng/mL final concentration) as indicated. Plates were incubated at 37° C. for 72 h and proliferation was read out using Cell Titer Glo (Promega) according to the manufacturer's protocol. For Ba/F3 cell proliferation, cells, drug dilution, and any necessary growth factors (10 ng/mL IL-3 or 6.25 ng/mL NRG) were combined in a well of a 96 well plate. Plates were incubated at 37° C. for 48 h and proliferation was read out using Cell Titer Glo according to the manufacturer's protocol. For all normalized assays, proliferation was normalized to the DMSO control condition. All graphs were plotted in GraphPad Prism 6 and fit with a non-linear regression of the log(inhibitor) vs response with a variable slope where shown. All graphs are averages (+/−standard deviation) of biological triplicates each performed in technical triplicate unless otherwise noted. If only one biological replicate was performed standard deviations were derived from the technical replicates.

[3] = system: parental Ba/F3 cells + IL-3; assay: Ba/F3 proliferation assay, Parental + IL-3; conditions: Mus musculus, BaF3; Tables 7 and 8; read-out: Ba/F3 line IC50, Parental + IL-3
Method: as §1, §2

HER2+/2VE Ba/F3 line = assay: Ba/F3 proliferation assay, HER2+/2VE; conditions: Mus musculus, BaF3; Tables 7 and 8
Method: as §2

HCC827 = HCC827 cell viability; conditions: Homo sapiens, compound at 1 nM, n in the line below, read-out: HCC827 (% viable at 1 nM)
A431 = A431 cell proliferation; conditions: Homo sapiens, A-431; Table 8; n in the line below
NCI-H1975 = NCI-H1975 cell proliferation; conditions: Homo sapiens, Table 8, n in the line below

SMILES | level of pathway inhibition distinguished by the Ba/F3 panel [1] | GI50 [2] | GI50 (Axl+ Ba/F3 cells) | IC50 [3] | IC50 (HER2+/2VE Ba/F3 line) | viability at 0.001 µM (HCC827) | IC50 (A431) | IC50 (NCI-H1975)
CC(=O)Nc1nc(C)c(-c2ccc(Cl)c(S(=O)(=O)NCCO)c2)s1 [PIK-93] | hit downstream |  |  |  |  |  |  | 
COc1ccc(-c2ccccn2)cc1Nc1ncnc2[nH]cc(-c3cc[nH]n3)c12 [8-090] |  | 227 nM | 1570 nM | 2250 nM | 895 nM | 102% | 911 nM | 2540 nM
COc1ccc(-c2ccsc2)cc1Nc1ncnc2[nH]cc(-c3cc[nH]n3)c12 [8-091] |  | 9.25 nM | 697 nM | 2590 nM | 120 nM | 80.9 ± 24% | 634 ± 188 nM | 1420 ± 117 nM
COc1ccc(-c2ccccc2)cc1Nc1ncnc2[nH]nc(-c3cc[nH]n3)c12 [8-096] |  | 2 nM | 501 nM | 1540 nM | 31.4 nM | 30.6 ± 4.2% | 471 ± 63.4 nM | 891 ± 18.6 nM
COc1ccc(-c2ccccc2)cc1Nc1ncnc2[nH]nc(-c3ccn(C)n3)c12 [8-097] |  | 1 nM | 612 nM | 1770 nM | 13.7 nM | 29.5 ± 7.1% | 290 ± 71 nM | 507 ± 85.1 nM
CN(C)c1ccc(-c2ccsc2)cc1Nc1ncnc2[nH]nc(-c3ccn(C)n3)c12 [104B] |  | 1.5 nM | 1560 nM | ~2000 nM | 46.4 nM | 25.2 ± 3.4% | 343 ± 169 nM | 814 ± 59 nM
